Measured values from patent publication US20130102595A1 (Curis, Inc., priority 2011, published 2013).

What was measured:
[1] = system: HDACs (HeLa cell nuclear extracts); assay: HDAC enzymatic activity, Biomol Color de Lys system; format: biochemical; details: 1 hour, 25° C.
Procedure, shortened: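 IC50 from sigmoidal fit of developer-terminated fluorescence (ex 350-380/em 440-460 nm). Reaction: 1 h at room temperature (25 °C), HeLa nuclear extract as HDAC source, artificial substrate, buffer of 50 mM Tris/Cl pH 8.0 with 137 mM NaCl, 2.7 mM KCl and 1 mM MgCl2.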

PI3Kα (p110α/p85α) = molecular target: T1, PI3Kα (p110α/p85α) (Homo sapiens, UniProt P42336); assay: PI3Kα ADP-Glo assay; format: biochemical; details: 20 μM PIP2, 10 μM ATP, 30 minutes
T1 construct: GST (N); made in house; host or cells: Baculovirus-infected Sf9 cells
T1 sequence (P42336 whole entry): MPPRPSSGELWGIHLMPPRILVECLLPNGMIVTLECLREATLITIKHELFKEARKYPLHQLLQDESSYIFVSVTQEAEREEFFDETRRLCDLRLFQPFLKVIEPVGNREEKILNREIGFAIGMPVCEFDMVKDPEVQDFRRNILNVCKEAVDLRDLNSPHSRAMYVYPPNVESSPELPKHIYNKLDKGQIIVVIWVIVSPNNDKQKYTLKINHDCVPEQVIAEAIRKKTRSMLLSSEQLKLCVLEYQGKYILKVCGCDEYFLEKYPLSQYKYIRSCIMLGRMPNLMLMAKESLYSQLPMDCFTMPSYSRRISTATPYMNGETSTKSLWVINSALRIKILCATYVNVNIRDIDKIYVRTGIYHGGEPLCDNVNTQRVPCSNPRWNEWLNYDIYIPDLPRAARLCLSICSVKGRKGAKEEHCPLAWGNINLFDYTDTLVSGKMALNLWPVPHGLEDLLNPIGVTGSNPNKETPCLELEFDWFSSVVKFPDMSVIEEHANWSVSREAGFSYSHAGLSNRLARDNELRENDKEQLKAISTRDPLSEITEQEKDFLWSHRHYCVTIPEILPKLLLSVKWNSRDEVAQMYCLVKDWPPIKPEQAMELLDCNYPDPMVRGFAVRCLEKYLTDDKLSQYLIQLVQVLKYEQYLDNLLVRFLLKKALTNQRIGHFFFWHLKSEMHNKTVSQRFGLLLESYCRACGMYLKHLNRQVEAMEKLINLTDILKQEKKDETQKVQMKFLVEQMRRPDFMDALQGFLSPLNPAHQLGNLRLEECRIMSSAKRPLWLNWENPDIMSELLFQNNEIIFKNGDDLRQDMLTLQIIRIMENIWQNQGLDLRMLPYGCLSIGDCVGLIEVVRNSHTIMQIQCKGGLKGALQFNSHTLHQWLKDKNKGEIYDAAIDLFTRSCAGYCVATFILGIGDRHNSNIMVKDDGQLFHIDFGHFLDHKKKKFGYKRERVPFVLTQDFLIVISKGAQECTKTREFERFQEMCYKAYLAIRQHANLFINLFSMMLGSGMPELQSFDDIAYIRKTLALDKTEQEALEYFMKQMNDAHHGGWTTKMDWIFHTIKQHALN
T1 sequence (P27986 whole entry partner): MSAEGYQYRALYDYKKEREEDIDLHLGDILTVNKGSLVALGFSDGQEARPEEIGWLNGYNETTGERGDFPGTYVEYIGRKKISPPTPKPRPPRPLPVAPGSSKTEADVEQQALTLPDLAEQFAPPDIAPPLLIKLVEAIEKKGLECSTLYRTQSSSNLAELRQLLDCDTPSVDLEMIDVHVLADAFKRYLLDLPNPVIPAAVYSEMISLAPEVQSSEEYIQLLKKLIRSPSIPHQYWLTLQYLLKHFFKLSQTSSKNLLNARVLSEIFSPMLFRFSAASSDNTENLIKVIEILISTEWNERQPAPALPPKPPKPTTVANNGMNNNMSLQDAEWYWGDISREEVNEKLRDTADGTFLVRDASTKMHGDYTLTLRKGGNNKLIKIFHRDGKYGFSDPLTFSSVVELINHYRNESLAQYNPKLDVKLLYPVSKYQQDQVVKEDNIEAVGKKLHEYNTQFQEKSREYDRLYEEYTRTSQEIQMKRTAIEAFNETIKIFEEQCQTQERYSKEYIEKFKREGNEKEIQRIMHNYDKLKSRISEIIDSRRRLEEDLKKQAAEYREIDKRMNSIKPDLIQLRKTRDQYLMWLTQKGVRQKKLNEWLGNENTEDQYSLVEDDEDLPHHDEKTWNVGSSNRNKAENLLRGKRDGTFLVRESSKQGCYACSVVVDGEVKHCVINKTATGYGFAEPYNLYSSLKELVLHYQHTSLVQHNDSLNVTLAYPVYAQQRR
Procedure, shortened: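 Luminescent ADP-Glo detection, after depletion of residual ATP, quantified ADP made by PI3Kα phosphorylating 20 μM PIP2 at 10 μM ATP. The kinase step ran 30 min at room temperature in HEPES pH 7.4 with MgCl2, DTT and orthovanadate, using baculovirus/Sf9-expressed full-length p110α/p85α complex.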

| IC50 [1] [nM] | melting point | IC50 (PI3Kα (p110α/p85α)) [nM] | SMILES |
| --- | --- | --- | --- |
| 100 to 1000 | 140 to 145 °C | > 10000 | CS(=O)(=O)N1CCN(Cc2cc3nc(-c4cccc5[nH]ncc45)nc(N4CCN(CCCCCC(=O)NO)CC4)c3s2)CC1 [Compound 31, 6-(4-(2-(1H-indazol-4-yl)-6-((4-(methylsulfonyl)piperazin-1-yl)methyl)thieno[3,2-d]pyrimidin-4-yl)piperazin-1-yl)-N-hydroxyhexanamide] |
| < 100 | 124 to 125 °C | > 10000 | CS(=O)(=O)N1CCN(Cc2cc3nc(-c4cccc5nn(CCCCCC(=O)NO)cc45)nc(N4CCOCC4)c3s2)CC1 [Compound 8, N-hydroxy-6-(4-(6-((4-(methylsulfonyl)piperazin-1-yl)methyl)-4-morpholinothieno[3,2-d]pyrimidin-2-yl)-2H-indazol-2-yl)hexanamide] |
| 100 to 1000 | > 300 °C | < 100 | O=C(/C=C/c1ccc(NCc2cc3nc(-c4cccc5[nH]ncc45)nc(N4CCOCC4)c3s2)cc1)NO [Compound 80, (E)-3-(4-((2-(1H-indazol-4-yl)-4-morpholinothieno[3,2-d]pyrimidin-6-yl)methylamino)phenyl)-N-hydroxyacrylamide] |
| 100 to 1000 | 196 to 198 °C | 100 to 1000 | CC(C)CN(Cc1cc2nc(-c3cccc4[nH]ncc34)nc(N3CCOCC3)c2s1)c1ncc(C(=O)NO)cn1 [Compound 93, 2-(((2-(1H-indazol-4-yl)-4-morpholinothieno[3,2-d]pyrimidin-6-yl)methyl)(isobutyl)amino)-N-hydroxypyrimidine-5-carboxamide] |
| < 100 | 173 to 176 °C | 1000 to 10000 | CN(Cc1cc2nc(-c3cccc(CN)c3)nc(N3CCOCC3)c2s1)c1ncc(C(=O)NO)cn1 [Compound 137, 2-(((2-(3-(aminomethyl)phenyl)-4-morpholinothieno[3,2-d]pyrimidin-6-yl)methyl)(methyl)amino)-N-hydroxypyrimidine-5-carboxamide] |
| 100 to 1000 | 131 to 133 °C | < 100 | CN(CCCCCCC(=O)NO)Cc1cc2nc(-c3cccc4[nH]ncc34)nc(N3CCOCC3)c2s1 [Compound 104, 7-(((2-(1H-indazol-4-yl)-4-morpholinothieno[3,2-d]pyrimidin-6-yl)methyl)(methyl)amino)-N-hydroxyheptanamide] |
| < 100 | 172 to 175 °C | 1000 to 10000 | CN(C)c1cccc(-c2nc(N3CCOCC3)c3sc(CN(C)c4ncc(C(=O)NO)cn4)cc3n2)c1 [Compound 108, 2-(((2-(3-(dimethylamino)phenyl)-4-morpholinothieno[3,2-d]pyrimidin-6-yl)methyl)(methyl)amino)-N-hydroxypyrimidine-5-carboxamide] |
| 100 to 1000 | 143 to 145 °C | 100 to 1000 | CS(=O)(=O)N1CCN(Cc2cc3nc(-c4ccc(OCCCCCCC(=O)NO)cc4)nc(N4CCOCC4)c3s2)CC1 [Compound 321, N-Hydroxy-7-(4-(6-((4-(methylsulfonyl)piperazin-1-yl)methyl)-4-morpholinothieno[3,2-d]pyrimidin-2-yl)phenoxy)heptanamide] |
| < 100 | 123 to 126 °C | > 10000 | CS(=O)(=O)N1CCN(Cc2cc3nc(-c4cccc5nn(CCCCCCC(=O)NO)cc45)nc(N4CCOCC4)c3s2)CC1 [Compound 9, N-hydroxy-7-(4-(6-((4-(methylsulfonyl)piperazin-1-yl)methyl)-4-morpholinothieno[3,2-d]pyrimidin-2-yl)-2H-indazol-2-yl)heptanamide] |

The remaining lines, values behind:

| SMILES | IC50 [1] [nM] | melting point | IC50 (PI3Kα (p110α/p85α)) [nM] |
| --- | --- | --- | --- |
| CNCCOc1ccc(-c2nc(N3CCOCC3)c3sc(CN(C)c4ncc(C(=O)NO)cn4)cc3n2)cn1 [Compound 258, N-Hydroxy-2-(methyl((2-(6-(2-(methylamino)ethoxy)pyridin-3-yl)-4-morpholinothieno[3,2-d]pyrimidin-6-yl)methyl)amino)pyrimidine-5-carboxamide] | < 100 | 170 to 175 °C | > 10000 |
| COCc1cccc(-c2nc(N3CCOCC3)c3sc(CN(C)c4ncc(C(=O)NO)cn4)cc3n2)c1 [Compound 139, N-hydroxy-2-(((2-(3-(methoxymethyl)phenyl)-4-morpholinothieno[3,2-d]pyrimidin-6-yl)methyl)(methyl)amino)pyrimidine-5-carboxamide] | < 100 | 178 to 181 °C | 100 to 1000 |
| CN(Cc1cc2nc(-c3cn[nH]c3)nc(N3CCOCC3)c2s1)c1ncc(C(=O)NO)cn1 [Compound 196, N-hydroxy-2-(methyl((4-morpholino-2-(1H-pyrazol-4-yl)thieno[3,2-d]pyrimidin-6-yl)methyl)amino)pyrimidine-5-carboxamide] | < 100 | 214 to 217 °C | 100 to 1000 |
| CN(Cc1cc2nc(-c3ccc(Cl)cc3)nc(N3CCOCC3)c2s1)c1ncc(C(=O)NO)cn1 [Compound 147, 2-(((2-(4-chlorophenyl)-4-morpholinothieno[3,2-d]pyrimidin-6-yl)methyl)(methyl)amino)-N-hydroxypyrimidine-5-carboxamide] | < 100 | 153 °C | > 10000 |
| CN(Cc1cc2nc(-c3ccc4c(c3)CC(=O)N4)nc(N3CCOCC3)c2s1)c1ncc(C(=O)NO)cn1 [Compound 194, N-hydroxy-2-(methyl((4-morpholino-2-(2-oxoindolin-5-yl)thieno[3,2-d]pyrimidin-6-yl)methyl)amino)pyrimidine-5-carboxamide] | < 100 | 270 °C (dec.) | > 10000 |
| COc1ccc(-c2nc(N3CCOCC3)c3sc(NS(=O)(=O)c4cccc(/C=C/C(=O)NO)c4)cc3n2)cn1 [Compound 221, (E)-N-hydroxy-3-(3-(N-(2-(6-methoxypyridin-3-yl)-4-morpholinothieno[3,2-d]pyrimidin-6-yl)sulfamoyl)phenyl)acrylamide] | < 100 | > 300 °C | < 100 |
| CN(C)c1ccc(-c2nc(N3CCOCC3)c3sc(CN(C)c4ncc(C(=O)NO)cn4)cc3n2)cn1 [Compound 114, 2-(((2-(6-(dimethylamino)pyridin-3-yl)-4-morpholinothieno[3,2-d]pyrimidin-6-yl)methyl)(methyl)amino)-N-hydroxypyrimidine-5-carboxamide] | < 100 | 190 to 195 °C | 100 to 1000 |
| COc1ncc(-c2nc(N3CCOCC3)c3sc(C(C)N(C)c4ncc(C(=O)NO)cn4)cc3n2)cn1 (stereo not drawn) [Compound 262, N-Hydroxy-2-((1-(2-(2-methoxypyrimidin-5-yl)-4-morpholinothieno[3,2-d]pyrimidin-6-yl)ethyl)(methyl)amino)pyrimidine-5-carboxamide] | < 100 | 210 to 215 °C | < 100 |
| CN(Cc1cc2nc(-c3ccc4c(c3)NCCO4)nc(N3CCOCC3)c2s1)c1ncc(C(=O)NO)cn1 [Compound 182, 2-(((2-(3,4-dihydro-2H-benzo[b][1,4]oxazin-6-yl)-4-morpholinothieno[3,2-d]pyrimidin-6-yl)methyl)(methyl)amino)-N-hydroxypyrimidine-5-carboxamide] | < 100 | 170 to 183 °C | 1000 to 10000 |
| CN(C)CCOc1ccc(-c2nc(N3CCOCC3)c3sc(CN(C)c4ncc(C(=O)NO)cn4)cc3n2)cn1 [Compound 257, 2-(((2-(6-(2-(Dimethylamino)ethoxy)pyridin-3-yl)-4-morpholinothieno[3,2-d]pyrimidin-6-yl)methyl)(methyl)amino)-N-hydroxypyrimidine-5-carboxamide] | < 100 | 140 to 143 °C | > 10000 |
| CC(C)c1ccc(-c2nc(N3CCOCC3)c3sc(CN(C)c4ncc(C(=O)NO)cn4)cc3n2)cc1 [Compound 148, N-hydroxy-2-(((2-(4-isopropylphenyl)-4-morpholinothieno[3,2-d]pyrimidin-6-yl)methyl)(methyl)amino)pyrimidine-5-carboxamide] | < 100 | 155 °C (dec.) | > 10000 |
| CN(Cc1cc2nc(-c3ccc(N)c(F)c3)nc(N3CCOCC3)c2s1)c1ncc(C(=O)NO)cn1 [Compound 276, 2-(((2-(4-Amino-3-fluorophenyl)-4-morpholinothieno[3,2-d]pyrimidin-6-yl)methyl)(methyl)amino)-N-hydroxypyrimidine-5-carboxamide] | < 100 | 203 to 206 °C | < 100 |
| CN(Cc1cc2nc(-c3ccc(N)c(N)c3)nc(N3CCOCC3)c2s1)c1ncc(C(=O)NO)cn1 [Compound 156, 2-(((2-(3,4-diaminophenyl)-4-morpholinothieno[3,2-d]pyrimidin-6-yl)methyl)(methyl)amino)-N-hydroxypyrimidine-5-carboxamide] | < 100 | 222 to 225 °C | 100 to 1000 |
| COc1ccc(-c2nc(N3CCOCC3)c3sc(NS(=O)(=O)c4ccc(/C=C/C(=O)NO)cc4)cc3n2)cn1 [Compound 222, N-Hydroxy-3-{4-[2-(6-methoxy-pyridin-3-yl)-4-morpholin-4-yl-thieno[3,2-d]pyrimidin-6-ylsulfamoyl]-phenyl}-acrylamide] | < 100 | > 300 °C | 100 to 1000 |
